Assay results published in paper PMC12165416, “HarmGR13 mediates myo-inositol taste perception in Helicoverpa armigera larvae” (PLOS Genetics, 2025).

Tests used:
Assay in all cases: two-electrode voltage clamp, Xenopus oocytes, inward current
Type in all cases: cell-based
[1] = target: T1, HarmGR13 (Helicoverpa armigera, UniProt Z9NT97MFL8, D92A); settings: Ringer's solution pH 7.6, -80 mV; 100 mM inositol
T1 construct: full-length, 436 aa; cDNA from larval maxillary galea; pCS2+ cRNA injected into Xenopus laevis oocytes; expressed alone
T1 sequence (Z9NT97MFL8 1-436 D92A): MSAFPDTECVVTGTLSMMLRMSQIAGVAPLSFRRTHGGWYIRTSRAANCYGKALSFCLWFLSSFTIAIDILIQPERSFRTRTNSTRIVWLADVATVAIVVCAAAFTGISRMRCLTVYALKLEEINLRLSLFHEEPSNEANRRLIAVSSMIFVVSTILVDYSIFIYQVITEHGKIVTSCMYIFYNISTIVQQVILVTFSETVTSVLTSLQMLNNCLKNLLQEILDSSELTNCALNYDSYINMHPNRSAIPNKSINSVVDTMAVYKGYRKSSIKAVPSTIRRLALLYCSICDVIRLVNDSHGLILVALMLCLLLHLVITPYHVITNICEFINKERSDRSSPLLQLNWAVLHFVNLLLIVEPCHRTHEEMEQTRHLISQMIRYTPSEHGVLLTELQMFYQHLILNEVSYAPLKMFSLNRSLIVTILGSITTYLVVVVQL

[2] = target: T2, HarmGR13 (Helicoverpa armigera, UniProt Z9NT97MFL8); settings: Ringer's solution pH 7.6, -80 mV; agonist; dose-response curve in Fig 5B, EC50 not given
T2 construct: full-length, 436 aa; cDNA from larval maxillary galea; pCS2+ cRNA injected into Xenopus laevis oocytes; expressed alone
T2 sequence (Z9NT97MFL8 1-436): T1 sequence (Z9NT97MFL8 1-436 D92A)

[3] = target: T3, HarmGR13 (Helicoverpa armigera, UniProt Z9NT97MFL8, D159A); settings: Ringer's solution pH 7.6, -80 mV; 100 mM inositol
T3 construct: full-length, 436 aa; cDNA from larval maxillary galea; pCS2+ cRNA injected into Xenopus laevis oocytes; expressed alone
T3 sequence (Z9NT97MFL8 1-436 D159A): T1 sequence (Z9NT97MFL8 1-436 D92A)

[4] = target: T3, HarmGR13; settings: Ringer's solution pH 7.6, -80 mV; 500 mM ribose
[5] = target: T1, HarmGR13; settings: Ringer's solution pH 7.6, -80 mV; 500 mM ribose

SMILES: O[C@H]1[C@H](O)[C@@H](O)[C@H](O)[C@@H](O)[C@H]1O [myo-inositol]
- inward current at 100 mM [1]: each of three mutated HarmGR13 did not show any inward currents
- threshold concentration [2]: 1 mM
- inward current at 100 mM [3]: each of three mutated HarmGR13 did not show any inward currents

SMILES: OC1OC[C@@H](O)[C@@H](O)[C@H]1O (stereo partly drawn) [ribose]
- inward current at 500 mM [4]: each of three mutated HarmGR13 did not show any inward currents
- threshold concentration [2]: 10 mM
- inward current at 500 mM [5]: each of three mutated HarmGR13 did not show any inward currents
